In PubChem BioAssay (NCI):
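All cell lines were grown in 96-well plates and treated with compound for 48 hours. GI50: concentration for 50% inhibition of growth. The concentration for full growth arrest is given as TGI.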

Experiments:
Assay in all cases: NCI anticancer screen, dose series, 48 h
[1] = tested on: A498 renal
[2] = tested on: UACC-257 melanoma
[3] = tested on: TK-10 renal
[4] = tested on: SR leukemia
[5] = tested on: A549 NSCLC
[6] = tested on: HOP-92 NSCLC
[7] = tested on: SNB-19 CNS
[8] = tested on: HL-60(TB) leukemia
[9] = tested on: SNB-75 CNS
[10] = tested on: SF-295 CNS
[11] = tested on: IGROV1 ovarian
[12] = tested on: KM12 colon
[13] = tested on: SN12C renal
[14] = tested on: HS 578T breast
[15] = tested on: SW-620 colon
[16] = tested on: NCI/ADR-RES ovarian
[17] = tested on: M14 melanoma
[18] = tested on: BT-549 breast
[19] = tested on: OVCAR-5 ovarian
[20] = tested on: HOP-62 NSCLC
[21] = tested on: COLO 205 colon
[22] = tested on: SK-MEL-2 melanoma
[23] = tested on: EKVX NSCLC
[24] = tested on: OVCAR-8 ovarian
[25] = tested on: PC-3 prostate
[26] = tested on: SF-539 CNS
[27] = tested on: NCI-H226 lung
[28] = tested on: 786-0 renal
[29] = tested on: SK-MEL-28 melanoma
[30] = tested on: NCI-H23 lung
[31] = tested on: MALME-3M melanoma
[32] = tested on: K-562 leukemia
[33] = tested on: SK-MEL-5 melanoma
[34] = tested on: OVCAR-4 ovarian
[35] = tested on: HCT-15 colon
[36] = tested on: MDA-MB-435
[37] = tested on: MOLT-4 leukemia
[38] = tested on: HCT-116 colon
[39] = tested on: UO-31 renal
[40] = tested on: SK-OV-3 ovarian
[41] = tested on: UACC-62 melanoma
[42] = tested on: U251 CNS
[43] = tested on: HCC-2998 colon
[44] = tested on: NCI-H522 lung
[45] = tested on: NCI-H460 lung
[46] = tested on: OVCAR-3 ovarian
[47] = tested on: DU-145 prostate
[48] = tested on: CAKI-1 renal
[49] = tested on: LOX IMVI melanoma
[50] = tested on: RPMI-8226 leukemia
[51] = tested on: MDA-MB-231 breast
[52] = tested on: HT29 colon
[53] = tested on: SF-268 CNS
[54] = tested on: MCF7 breast
[55] = tested on: T-47D breast
[56] = tested on: ACHN renal
[57] = tested on: RXF 393 renal
[58] = tested on: CCRF-CEM leukemia

Clc1ccc(N2COOC3(OOC2)C2CC4CC(C2)CC3C4)cc1
GI50 [1]: 11.9 µM | TGI [1]: > 100 µM | GI50 [2]: > 54.4 µM | TGI [2]: > 100 µM | GI50 [3]: 4.98 µM | TGI [3]: 10.5 µM | GI50 [4]: 2.19 µM | TGI [4]: 11.4 µM | GI50 [5]: 5.18 µM | TGI [5]: > 100 µM | GI50 [6]: 14.9 µM | TGI [6]: 43.5 µM | GI50 [7]: > 40 µM | TGI [7]: > 100 µM | GI50 [8]: 1.55 µM | TGI [8]: 8.27 µM | GI50 [9]: 10.8 µM | TGI [9]: 55.2 µM | GI50 [10]: 2.99 µM | TGI [10]: 17.9 µM | GI50 [11]: 1.81 µM | TGI [11]: 6.22 µM | GI50 [12]: 2.02 µM | TGI [12]: > 100 µM | GI50 [13]: 5.35 µM | TGI [13]: > 56.9 µM | GI50 [14]: 8.99 µM | TGI [14]: > 100 µM | TGI [15]: > 57.8 µM | GI50 [16]: 5.34 µM | TGI [16]: 74.9 µM | GI50 [17]: 1.48 µM | TGI [17]: > 100 µM | GI50 [18]: 5.96 µM | TGI [18]: > 58 µM | GI50 [19]: 8.34 µM | TGI [19]: > 74.8 µM | GI50 [20]: 13.9 µM | TGI [20]: 38.6 µM | GI50 [21]: 12.7 µM | TGI [21]: 90.8 µM | GI50 [22]: 10.5 µM | TGI [22]: > 88.3 µM | GI50 [23]: 4.17 µM | TGI [23]: > 100 µM | GI50 [24]: 14.4 µM | TGI [24]: > 100 µM | GI50 [25]: 5.11 µM | TGI [25]: > 75.3 µM | GI50 [26]: 4.74 µM | TGI [26]: 59.3 µM | GI50 [27]: > 61.2 µM | TGI [27]: > 100 µM | GI50 [28]: 1.21 µM | TGI [28]: 5.73 µM | GI50 [29]: > 30.8 µM | TGI [29]: > 100 µM | GI50 [30]: 11.5 µM | TGI [30]: 31.6 µM | GI50 [31]: 14.4 µM | TGI [31]: > 100 µM | GI50 [32]: 0.543 µM | TGI [32]: > 39.5 µM | GI50 [33]: 1.25 µM | TGI [33]: > 24.2 µM | GI50 [34]: 5.52 µM | TGI [34]: > 59.5 µM | GI50 [35]: 0.864 µM | TGI [35]: > 41.9 µM | GI50 [36]: 1.61 µM | TGI [36]: 13.2 µM | GI50 [37]: 3.82 µM | TGI [37]: > 50.7 µM | GI50 [38]: 4.1 µM | TGI [38]: > 50.2 µM | GI50 [39]: 0.579 µM | TGI [39]: 2.21 µM | GI50 [40]: > 100 µM | TGI [40]: > 100 µM | GI50 [41]: 1.01 µM | TGI [41]: > 43 µM | GI50 [42]: 11.9 µM | TGI [42]: 32.9 µM | GI50 [43]: > 24.4 µM | TGI [43]: > 100 µM | GI50 [44]: 1.75 µM | TGI [44]: 6.91 µM | GI50 [45]: 1.57 µM | TGI [45]: 9.27 µM | GI50 [46]: 13.2 µM | TGI [46]: 39.1 µM | GI50 [47]: 8.83 µM | TGI [47]: > 89 µM | GI50 [48]: 0.299 µM | TGI [48]: 19.5 µM | GI50 [49]: 0.15 µM | TGI [49]: 2.44 µM | GI50 [50]: 4.28 µM | TGI [50]: 14.7 µM | GI50 [51]: 6.69 µM | TGI [51]: > 57.9 µM | GI50 [52]: 9.93 µM | TGI [52]: > 60.1 µM | GI50 [53]: 5.88 µM | TGI [53]: > 67.4 µM | GI50 [54]: 3.98 µM | TGI [54]: > 46.1 µM | GI50 [55]: 4.97 µM | TGI [55]: > 100 µM | GI50 [56]: 0.622 µM | TGI [56]: 6.03 µM | GI50 [57]: 6.96 µM | TGI [57]: > 59.3 µM | GI50 [58]: 2.81 µM

C=C1C(=O)O[C@H]2[C@H]1CC/C(COC(=O)/C=C/c1cccnc1)=C\CC[C@@]1(C)O[C@@H]21
GI50 [1]: 4.11 µM | TGI [1]: 16.3 µM | GI50 [2]: 1.73 µM | TGI [2]: 3.54 µM | GI50 [3]: 2.01 µM | TGI [3]: 4.06 µM | GI50 [4]: 1.57 µM | TGI [4]: 7.01 µM | GI50 [5]: 9.86 µM | TGI [5]: 23.6 µM | GI50 [6]: 0.853 µM | TGI [6]: 2.74 µM | GI50 [7]: 9.05 µM | TGI [7]: 28.4 µM | GI50 [8]: 0.741 µM | TGI [8]: 3.7 µM | GI50 [9]: 11.3 µM | TGI [9]: 24.1 µM | GI50 [10]: 10.6 µM | TGI [10]: 23.1 µM | GI50 [11]: 2.07 µM | TGI [11]: 7.86 µM | GI50 [12]: 3.47 µM | TGI [12]: 13.2 µM | GI50 [13]: 2.38 µM | TGI [13]: 7.92 µM | GI50 [14]: 4.22 µM | TGI [14]: 36 µM | GI50 [15]: 0.467 µM | TGI [15]: 2.35 µM | GI50 [16]: 3.3 µM | TGI [16]: 14.1 µM | GI50 [17]: 1.38 µM | TGI [17]: 3.23 µM | GI50 [18]: 1.18 µM | TGI [18]: 2.68 µM | GI50 [19]: 2.11 µM | TGI [19]: 5.94 µM | GI50 [20]: 11.5 µM | TGI [20]: 24.6 µM | GI50 [21]: 1.06 µM | TGI [21]: 2.82 µM | GI50 [22]: 3.88 µM | TGI [22]: 12.7 µM | GI50 [23]: 3.28 µM | TGI [23]: 14.3 µM | GI50 [24]: 3.85 µM | TGI [24]: 13.9 µM | GI50 [25]: 8.28 µM | TGI [25]: 22.1 µM | GI50 [26]: 1.5 µM | TGI [26]: 2.97 µM | GI50 [27]: 2.68 µM | TGI [27]: 9.98 µM | GI50 [28]: 1.1 µM | TGI [28]: 2.58 µM | GI50 [29]: 1.26 µM | TGI [29]: 2.61 µM | GI50 [30]: 3.42 µM | TGI [30]: 15.4 µM | GI50 [31]: 1.69 µM | TGI [31]: 3.63 µM | GI50 [32]: 1.04 µM | TGI [32]: 6.13 µM | GI50 [33]: 3.37 µM | TGI [33]: 12.6 µM | GI50 [34]: 3.96 µM | TGI [34]: 16.9 µM | GI50 [35]: 1.11 µM | TGI [35]: 2.71 µM | GI50 [36]: 1.83 µM | TGI [36]: 5.14 µM | GI50 [37]: 1.75 µM | TGI [37]: 4.9 µM | GI50 [38]: 0.371 µM | TGI [38]: 1.52 µM | GI50 [39]: 1.11 µM | TGI [39]: 2.51 µM | GI50 [40]: 16.4 µM | TGI [40]: 53 µM | GI50 [41]: 1.89 µM | TGI [41]: 5 µM | GI50 [42]: 5.74 µM | TGI [42]: 18.3 µM | GI50 [43]: 5.02 µM | TGI [43]: 17.1 µM | GI50 [44]: 1.33 µM | TGI [44]: 3.48 µM | GI50 [45]: 5.12 µM | TGI [45]: 20 µM | GI50 [46]: 0.494 µM | TGI [46]: 1.76 µM | GI50 [47]: 1.39 µM | TGI [47]: 3.01 µM | GI50 [49]: 1.55 µM | TGI [49]: 2.93 µM | GI50 [50]: 1.9 µM | TGI [50]: 6.15 µM | GI50 [51]: 2 µM | TGI [51]: 5.04 µM | GI50 [52]: 2.23 µM | TGI [52]: 6.03 µM | GI50 [53]: 4.63 µM | TGI [53]: 18.4 µM | GI50 [54]: 0.748 µM | TGI [54]: 2.72 µM | GI50 [55]: 1.88 µM | TGI [55]: 5.12 µM | GI50 [57]: 0.75 µM | TGI [57]: 2.15 µM | GI50 [58]: 0.338 µM | TGI [58]: 3.73 µM
